Data set [1] in a line: Open dish study: constant influence of humidity on binary mixtures of losartan potassium form X. The data set is classed as physicochemical. To be noted: 5 days, 25° C., 60% relative humidity. As to the method: Storage conditions: Open dish study—constant influence of humidity Testing mixtures are put into open petri dishes and stored in a thermostatically controlled chamber at a temperature of 25° C. (±2° C.) and 60% (±5%) relative humidity
(§1) Mixtures are tested for up to 5 days in open petri dishes and up to 4 and 9 days in vials, and the following parameters were analysed at intervals of a few days or until the occurrence of significant change: appearance, […], conversion of a polymorph form (detected using powder X-ray diffraction spectroscopy and expressed as the amount of crystalline or amorphous phase different from the starting polymorph).

Data set [2] in a line: Vial study: influence of humidity in a closed container on binary mixtures of losartan potassium form X. The class given is physicochemical. The procedure:
Storage conditions: Vial study—influence of humidity in a closed container (simulation of packaging)
Testing mixtures are put into vials, exposed to 60% humidity for 18 hours, then closed with rubber stoppers and stored in a thermostatically controlled chamber at temperature of 25° C. (±2° C.) and 60% (±5%) relative humidity.
as §1

The mark [3] stands for this setting: vial, 4 days, exposed to 60% humidity 18 hours, closed, 25° C., 60% relative humidity.
Setting [4] is: vial, 9 days, exposed to 60% humidity 18 hours, closed, 25° C., 60% relative humidity.

Turning to `CCCCc1nc(Cl)c(CO)n1Cc1ccc(-c2ccccc2-c2nnn[n-]2)cc1.[K+]` [Not stabilized API, potassium salt of losartan], the Appearance result in data set [1] is reported as “white slightly”; in data set [2] (Initial state), “white powder”; in data set [2] (setting [3]), “white slightly”; in data set [2] (setting [4]), “white slightly”. Moreover, the “Form conversion (amount of crystalline or amorphous phase different from the starting polymorph, XRPD)” value in data set [1] came out at 10%; in data set [2] (Initial state), 0%; in data set [2] (setting [3]) it was 5%; in data set [2] (setting [4]), 100%. Further, the values for the Loss on drying in data set [1], in data set [2] (Initial state) and in data set [2] (setting [3]) were 0.93%, 0.08% and 0.52%, respectively.

(Values after patent US20070298108A1, “Pharmaceutical Formulation” (priority 2004, published 2007).)
